Results from US20240294489A1 (Captor Therapeutics S.A., priority 2020, published 2024).

Tests used:
Assay type in all cases: cell-based
SALL4 = target: T1, SALL4 (Homo sapiens, UniProt Q96SW2+Q9UJQ4); assay: SALL4 degradation assay, Kelly cell line (Western blot densitometry); conditions: Kelly cells, 24 h; for % of SALL4 protein reduction: 100 nM, average from n ≥ 2 experiments
T1 construct: SALL4 degradation in the Kelly cell line was investigated; endogenous in cells; host or cells: Kelly
Description: (§1) Cells were seeded on 6- or 12-well plates, and the compounds to be tested were added at the desired concentration range. […] After 24 h incubation (37° C., 5% CO2), cells were harvested, washed and cell lysates were prepared using RIPA lysis buffer. The amount of protein was determined via BCA assay, and the appropriate quantity was then loaded on the precast gel for the protein separation. After primary and secondary Ab staining, the membranes were washed and signals developed. The densitometry analysis was implemented to obtain the numeric values used later in the protein level evaluation process.

Hep3B cells = assay: Cell viability CTG assay, Hep3B; conditions: Homo sapiens, 72 h, 0.001-50 μM, read-out: Hep3B Geomean absolute IC50 by molecule, 72 H
Description: (§2) The effect of various compounds of the invention and various reference compounds on cell viability in various cell lines was investigated, using the Cell Viability—CTG Assay Protocol below. Hep3B, Kelly, H929, KG-1 and SNU-398 cells were maintained in respective cell medium (see Table 8, below). The cells were seeded on the 96-well or 384-white plates, and the compounds to be tested were added at the desired concentration range. Compounds are diluted in DMSO, and the DMSO concentration is kept constant at 0.25% v/v across the assay plate. After 72 h incubation (37° C., 5% CO2), CellTiter-Glo® Reagent (Promega/G7570) was added to the wells. Plates are shaken for 4 minutes and incubated for 8 minutes in the dark prior to reading luminescence (LU) by using the CLARIOstar Multimode Plate Reader. The signal is proportional to the amount of ATP, which is directly proportional to the number of cells present in the culture.
(§3) Luminescence (RLU) values were normalized to DMSO control. Dose response is assessed by non-linear regression and IC50 calculation with the average of technical duplicate of percentage inhibition. IC50 values are reported as absolute IC50 values, being the concentration of test compound at the intersection of the concentration-response curves with T/C=50%. For calculation of mean IC50 values the geometric mean is used.

H929 cells = assay: Cell viability CTG assay, H929; set-up: key to Geomean absolute IC50 by molecule, 72 H: Inactive represents IC50 > 50 μM; C represents 50 μM ≥ IC50 > 5 μM; conditions: H929, 72 h, 0.001-50 μM
Description: as §2, §3

KG-1 cells = assay: Cell viability CTG assay, KG-1; conditions: Homo sapiens; KG-1, 72 h, 0.001-50 μM; read-out: KG-1 Geomean absolute IC50 by molecule, 72 H
Description: as §2, §3

Kelly cells = assay: Cell viability CTG assay, Kelly; conditions: 72 h, 0.001-50 μM, read-out: Kelly Geomean absolute IC50 by molecule, 72 H
Description: as §2, §3

Ikaros (IKZF1) = target: T2, Ikaros (IKZF1) (Homo sapiens, UniProt Q13422+Q96SW2); assay: Ikaros degradation assay, H929 cell line; conditions: NCI-H929; H929 cells, 20 uM, 24 h; read-out: % of IKZF1 protein reduction
T2 construct: Ikaros degradation in the H929 cell line was investigated; endogenous in cells; host or cells: H929
T2 sequence (Q13422 whole entry): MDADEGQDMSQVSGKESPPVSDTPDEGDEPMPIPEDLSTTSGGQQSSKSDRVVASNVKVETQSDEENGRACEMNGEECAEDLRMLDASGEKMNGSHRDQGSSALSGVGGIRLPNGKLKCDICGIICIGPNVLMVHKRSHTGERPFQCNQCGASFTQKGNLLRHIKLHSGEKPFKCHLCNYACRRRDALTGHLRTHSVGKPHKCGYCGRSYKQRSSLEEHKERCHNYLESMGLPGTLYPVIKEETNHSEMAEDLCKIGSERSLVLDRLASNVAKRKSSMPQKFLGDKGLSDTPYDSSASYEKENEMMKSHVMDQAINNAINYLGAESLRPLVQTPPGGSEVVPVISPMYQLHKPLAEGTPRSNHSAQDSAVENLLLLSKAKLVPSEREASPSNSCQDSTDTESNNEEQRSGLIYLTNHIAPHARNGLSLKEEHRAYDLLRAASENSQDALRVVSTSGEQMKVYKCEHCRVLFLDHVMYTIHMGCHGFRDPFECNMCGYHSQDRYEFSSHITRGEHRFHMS
T2 sequence (Q96SW2 whole entry): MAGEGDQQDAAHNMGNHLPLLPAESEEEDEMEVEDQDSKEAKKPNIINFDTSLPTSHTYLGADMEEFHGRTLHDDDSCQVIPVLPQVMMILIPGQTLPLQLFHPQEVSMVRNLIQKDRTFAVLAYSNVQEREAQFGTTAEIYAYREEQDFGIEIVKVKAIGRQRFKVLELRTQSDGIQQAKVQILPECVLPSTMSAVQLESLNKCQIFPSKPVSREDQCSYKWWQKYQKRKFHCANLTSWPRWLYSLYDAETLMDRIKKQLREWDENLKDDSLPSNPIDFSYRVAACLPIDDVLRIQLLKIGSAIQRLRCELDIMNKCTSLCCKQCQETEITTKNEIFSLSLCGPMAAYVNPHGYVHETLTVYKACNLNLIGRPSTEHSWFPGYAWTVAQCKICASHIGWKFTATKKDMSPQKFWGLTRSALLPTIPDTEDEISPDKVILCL
T2 sequence (Q16531 whole entry partner): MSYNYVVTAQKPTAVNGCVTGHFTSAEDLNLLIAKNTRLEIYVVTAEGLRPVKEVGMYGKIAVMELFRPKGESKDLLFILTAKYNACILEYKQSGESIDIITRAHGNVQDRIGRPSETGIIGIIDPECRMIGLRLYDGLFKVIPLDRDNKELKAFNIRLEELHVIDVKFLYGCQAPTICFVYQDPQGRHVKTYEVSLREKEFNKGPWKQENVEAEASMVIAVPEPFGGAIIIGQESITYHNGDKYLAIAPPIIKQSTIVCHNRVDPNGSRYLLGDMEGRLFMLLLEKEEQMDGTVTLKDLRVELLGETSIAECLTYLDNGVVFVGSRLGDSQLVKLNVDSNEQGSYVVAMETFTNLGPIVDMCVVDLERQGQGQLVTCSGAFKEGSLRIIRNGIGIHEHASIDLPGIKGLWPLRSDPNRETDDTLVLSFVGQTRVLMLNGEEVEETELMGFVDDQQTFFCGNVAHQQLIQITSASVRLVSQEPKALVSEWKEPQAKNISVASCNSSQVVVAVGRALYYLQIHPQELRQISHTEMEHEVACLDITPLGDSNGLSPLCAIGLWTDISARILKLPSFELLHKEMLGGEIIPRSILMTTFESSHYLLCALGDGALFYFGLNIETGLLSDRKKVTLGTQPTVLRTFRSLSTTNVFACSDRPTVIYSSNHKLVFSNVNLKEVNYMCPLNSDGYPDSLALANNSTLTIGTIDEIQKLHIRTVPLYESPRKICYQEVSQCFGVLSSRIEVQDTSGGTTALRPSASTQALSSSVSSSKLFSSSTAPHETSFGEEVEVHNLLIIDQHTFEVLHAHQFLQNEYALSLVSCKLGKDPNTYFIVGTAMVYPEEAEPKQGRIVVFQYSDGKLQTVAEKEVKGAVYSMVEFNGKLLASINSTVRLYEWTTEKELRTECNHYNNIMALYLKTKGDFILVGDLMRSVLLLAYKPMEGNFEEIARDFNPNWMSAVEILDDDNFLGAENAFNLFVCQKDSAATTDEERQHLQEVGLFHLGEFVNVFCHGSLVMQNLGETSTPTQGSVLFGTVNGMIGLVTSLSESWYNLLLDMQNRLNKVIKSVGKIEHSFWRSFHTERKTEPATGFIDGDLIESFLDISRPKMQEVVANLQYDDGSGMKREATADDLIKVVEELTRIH
Description: as §1

T1 sequence (Q9UJQ4 whole entry): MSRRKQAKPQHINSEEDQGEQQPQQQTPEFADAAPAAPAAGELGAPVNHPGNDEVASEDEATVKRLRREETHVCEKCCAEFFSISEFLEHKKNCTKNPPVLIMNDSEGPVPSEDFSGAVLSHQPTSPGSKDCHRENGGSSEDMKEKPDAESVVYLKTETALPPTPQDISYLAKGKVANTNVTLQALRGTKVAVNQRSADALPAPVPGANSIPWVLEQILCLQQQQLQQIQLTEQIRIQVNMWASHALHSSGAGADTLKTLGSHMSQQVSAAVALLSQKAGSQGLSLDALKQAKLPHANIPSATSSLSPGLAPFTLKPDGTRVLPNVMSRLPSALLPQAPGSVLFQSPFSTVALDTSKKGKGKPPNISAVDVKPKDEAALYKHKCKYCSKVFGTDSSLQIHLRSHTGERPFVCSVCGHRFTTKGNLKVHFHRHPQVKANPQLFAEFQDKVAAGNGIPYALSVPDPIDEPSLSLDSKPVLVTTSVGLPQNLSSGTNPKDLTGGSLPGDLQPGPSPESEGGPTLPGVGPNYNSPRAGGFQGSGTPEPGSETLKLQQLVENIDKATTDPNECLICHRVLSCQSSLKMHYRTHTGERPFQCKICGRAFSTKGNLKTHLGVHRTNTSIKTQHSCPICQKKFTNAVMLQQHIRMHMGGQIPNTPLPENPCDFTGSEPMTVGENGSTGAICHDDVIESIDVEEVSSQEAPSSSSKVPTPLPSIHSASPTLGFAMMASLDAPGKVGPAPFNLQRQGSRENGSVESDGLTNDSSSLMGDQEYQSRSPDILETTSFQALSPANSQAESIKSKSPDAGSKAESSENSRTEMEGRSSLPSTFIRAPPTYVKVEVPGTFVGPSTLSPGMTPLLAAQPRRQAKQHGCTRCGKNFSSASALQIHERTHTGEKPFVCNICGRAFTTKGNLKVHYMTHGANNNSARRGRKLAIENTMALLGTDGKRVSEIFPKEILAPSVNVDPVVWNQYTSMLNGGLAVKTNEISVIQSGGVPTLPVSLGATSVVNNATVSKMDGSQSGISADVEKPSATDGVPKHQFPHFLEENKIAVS
T1 sequence (Q96SW2 whole entry): as the sequence (Q96SW2 whole entry) above
T1 sequence (Q16531 whole entry partner): as the sequence (Q16531 whole entry partner) above

| Structure (SMILES) | % of SALL4 protein reduction (SALL4) | IC50 (Hep3B cells) | Geomean absolute IC50 by molecule, 72 H (H929 cells) | IC50 (H929 cells; Homo sapiens, NCI-H929, read-out: Geomean absolute IC50 by molecule, 72 H) | inhibition at 20 µM (Ikaros (IKZF1)) | degradation of SALL4 (SALL4; 0.01 μM, FIG. 1) | IC50 (KG-1 cells) | IC50 (Kelly cells) |
| --- | --- | --- | --- | --- | --- | --- | --- | --- |
| CC(=O)Oc1cc(C)cc(C)c1C(C)(C)CC(=O)NCc1ccc2c(c1)CN(C1CCC(=O)NC1=O)C2=O (stereo not shown) [Compound 21, 2-[1-({[2-(2,6-dioxopiperidin-3-yl)-1-oxo-2,3-dihydro-1H-isoindol-5-yl]methyl}carbamoyl)-2-methylpropan-2-yl]-3,5-dimethylphenyl acetate] | >80% | ≤ 100 nM | Inactive |  |  |  | 1000 to 5000 nM | 1000 to 5000 nM |
| CC(=O)Oc1ccc(COC(=O)NCc2ccc3c(c2)CN(C2CCC(=O)NC2=O)C3=O)cc1 (stereo not shown) [Compound 22, 4-(((((2-(2,6-dioxopiperidin-3-yl)-1-oxoisoindolin-5-yl)methyl)carbamoyl)oxy)methyl)phenyl acetate] |  | ≤ 100 nM |  | 5000 to 50000 nM |  |  | ≤ 100 nM | 100 to 1000 nM |
| CC(OC(=O)NCc1ccc2c(c1)CN(C1CCC(=O)NC1=O)C2=O)OC(=O)C(C)C (stereo not shown) [Compound 23, 1-((((2-(2,6-dioxopiperidin-3-yl)-1-oxoisoindolin-5-yl)methyl)carbamoyl)oxy)ethyl isobutyrate] | >80% | ≤ 100 nM | Inactive |  | 0 to 24% |  |  |  |
| Cc1oc(=O)oc1COC(=O)NCc1ccc2c(c1)CN(C1CCC(=O)NC1=O)C2=O (stereo not shown) [Compound 24, (5-methyl-2-oxo-2H-1,3-dioxol-4-yl)methyl N-{[2-(2,6-dioxopiperidin-3-yl)-1-oxo-2,3-dihydro-1H-isoindol-5-yl]methyl}carbamate] |  | ≤ 100 nM | Inactive |  | 0 to 24% |  | ≤ 100 nM | 1000 to 5000 nM |
| NCC(=O)NCc1ccc2c(c1)CN(C1CCC(=O)NC1=O)C2=O (stereo not shown) [Compound 25, 2-amino-N-((2-(2,6-dioxopiperidin-3-yl)-1-oxoisoindolin-5-yl)methyl)acetamide] |  | 100 to 1000 nM | Inactive |  | 0 to 24% |  | 1000 to 5000 nM | 1000 to 5000 nM |

Now from value to compound, other results behind:

| % of SALL4 protein reduction (SALL4) | IC50 (Hep3B cells) | Geomean absolute IC50 by molecule, 72 H (H929 cells) | IC50 (H929 cells; Homo sapiens, NCI-H929, read-out: Geomean absolute IC50 by molecule, 72 H) | inhibition at 20 µM (Ikaros (IKZF1)) | degradation of SALL4 (SALL4; 0.01 μM, FIG. 1) | Structure (SMILES) | IC50 (KG-1 cells) | IC50 (Kelly cells) |
| --- | --- | --- | --- | --- | --- | --- | --- | --- |
|  | 100 to 1000 nM | Inactive |  | 0 to 24% |  | CC(C)C(NC(=O)OC(C)(C)C)C(=O)NCc1ccc2c(c1)CN(C1CCC(=O)NC1=O)C2=O (stereo not shown) [Compound 31, tert-butyl (1-(((2-(2,6-dioxopiperidin-3-yl)-1-oxoisoindolin-5-yl)methyl)amino)-3-methyl-1-oxobutan-2-yl)carbamate] | 1000 to 5000 nM | 1000 to 5000 nM |
|  | ≤ 100 nM | Inactive |  | 0 to 24% |  | NC(Cc1c[nH]c2ccccc12)C(=O)NCc1ccc2c(c1)CN(C1CCC(=O)NC1=O)C2=O (stereo not shown) [Compound 37, 2-amino-N-((2-(2,6-dioxopiperidin-3-yl)-1-oxoisoindolin-5-yl)methyl)-3-(1H-indol-3-yl)propanamide] | 100 to 1000 nM | 100 to 1000 nM |
|  | 100 to 1000 nM | Inactive |  | 0 to 24% |  | C[C@@H](O)[C@H](N)C(=O)NCc1ccc2c(c1)CN(C1CCC(=O)NC1=O)C2=O (stereo partly drawn) [Compound 39, (2S,3R)-2-amino-N-((2-(2,6-dioxopiperidin-3-yl)-1-oxoisoindolin-5-yl)methyl)-3-hydroxybutanamide] | 1000 to 5000 nM | 1000 to 5000 nM |
| 53% |  |  |  |  | lower activity | O=C1CCC(N2C(=O)c3ccccc3C2=O)C(=O)N1 (stereo not shown) [Thalidomide, reference compound] |  |  |
